For this data set, the system named is CCRIS mutagenicity, Ames/micronucleus/aberration tests. The data set is described as follows: CCRIS mutagenicity studies.
Setting [1] is: Test System: AMES SALMONELLA TYPHIMURIUM, Strain/Indicator: TA98, Metabolic Activation: NONE, Method: PREINCUBATION
Setting [2] is: Test System: AMES SALMONELLA TYPHIMURIUM, Strain/Indicator: TA100, Metabolic Activation: NONE, Method: PREINCUBATION

The source made the active and inactive calls. How the calls were made is not given here.

Turning to `O=C1c2ccccc2C(=O)c2c1ccc(O[C@@H]1O[C@H](CO[C@@H]3OC[C@@H](O)[C@H](O)[C@H]3O)[C@@H](O)[C@H](O)[C@H]1O)c2O`, the mutagenic call runs as follows: under setting [1], “inactive; negative”; (Test System: AMES SALMONELLA TYPHIMURIUM, Strain/Indicator: TA98, Metabolic Activation: RAT, LIVER, S-9, PCB, Method: PREINCUBATION) “inactive; negative”; under setting [2], “inactive; negative”; (Test System: AMES SALMONELLA TYPHIMURIUM, Strain/Indicator: TA100, Metabolic Activation: RAT, LIVER, S-9, PCB, Method: PREINCUBATION) “inactive; negative”; (Test System: UDS PRIMARY RAT HEPATOCYTES, Strain/Indicator: THY INCORP, Metabolic Activation: NONE) “active; positive”.

Regarding `Cc1c2cc(CO)ccc2nc2c1ccc1ccccc12`, the mutagenic call (Test System: AMES SALMONELLA TYPHIMURIUM, Strain/Indicator: TA100, Metabolic Activation: RAT, LIVER, S-9, AROCLOR 1254, Method: STANDARD PLATE) was “active; positive”.

As for `Cc1cccc2c([N+](=O)[O-])cccc12`, under setting [1], the mutagenic call is “active; positive”.

Regarding `Fc1ccc(F)c2c1ccc1ncccc12`, the mutagenic call (Test System: AMES SALMONELLA TYPHIMURIUM, Strain/Indicator: TA100, Metabolic Activation: RAT, LIVER, S-9, PHENOBARBITAL AND 5,6-BENZOFLAVONE, Method: PREINCUBATION) is “active; positive”.

Consider `CCCN(CCC)C(=O)SCC`, for which the mutagenic call by setting is: (End Point: In vitro chromosomal aberrations, Test System: Chinese hamster ovary (CHO) cells, Metabolic Activation: None) “inactive; negative”; (End Point: In vitro chromosomal aberrations, Test System: Chinese hamster ovary (CHO) cells, Metabolic Activation: Rat, Liver, S-9) “inactive; negative”; (End Point: In vitro chromosomal aberrations, Test System: Mouse lymphoma cells, Strain/Indicator: L5178Y (tk+/tk-), Metabolic Activation: None) “active; positive (structure and ploidy)”; (End Point: In vitro chromosomal aberrations, Test System: Mouse lymphoma cells, Strain/Indicator: L5178Y (tk+/tk-), Metabolic Activation: S-9) “inactive; negative”; (Test System: AMES SALMONELLA TYPHIMURIUM, Strain/Indicator: TA97, Metabolic Activation: HAMSTER, LIVER, S-9, AROCLOR 1254 (10 OR 30%), Method: PREINCUBATION) “inactive; negative”; (Test System: AMES SALMONELLA TYPHIMURIUM, Strain/Indicator: TA97, Metabolic Activation: NONE, Method: PREINCUBATION) “inactive; negative”. In addition, the mutagenic call (Test System: AMES SALMONELLA TYPHIMURIUM, Strain/Indicator: TA97, Metabolic Activation: RAT, LIVER, S-9, AROCLOR 1254 (10 OR 30%), Method: PREINCUBATION) is “inactive; negative”; the mutagenic call (Test System: AMES SALMONELLA TYPHIMURIUM, Strain/Indicator: TA98, Metabolic Activation: HAMSTER, LIVER, S-9, AROCLOR 1254 (10%), Method: PREINCUBATION) was “inactive; negative”; the mutagenic call (Test System: AMES SALMONELLA TYPHIMURIUM, Strain/Indicator: TA98, Metabolic Activation: HAMSTER, LIVER, S-9, AROCLOR 1254 (30%), Method: PREINCUBATION) was “inactive; negative”; the mutagenic call under setting [1] was “inactive; negative”; the mutagenic call (Test System: AMES SALMONELLA TYPHIMURIUM, Strain/Indicator: TA98, Metabolic Activation: RAT, LIVER, S-9, AROCLOR 1254 (10%), Method: PREINCUBATION) was “inactive; negative”; the mutagenic call (Test System: AMES SALMONELLA TYPHIMURIUM, Strain/Indicator: TA98, Metabolic Activation: RAT, LIVER, S-9, AROCLOR 1254 (30%), Method: PREINCUBATION) is “inactive; negative”. For the same compound, the mutagenic call (Test System: AMES SALMONELLA TYPHIMURIUM, Strain/Indicator: TA100, Metabolic Activation: HAMSTER, LIVER, S-9, AROCLOR 1254 (10%), Method: PREINCUBATION) was “inactive; negative”; the mutagenic call (Test System: AMES SALMONELLA TYPHIMURIUM, Strain/Indicator: TA100, Metabolic Activation: HAMSTER, LIVER, S-9, AROCLOR 1254 (30%), Method: PREINCUBATION) is “inactive; negative”; the mutagenic call under setting [2] is “inactive; negative”; the mutagenic call (Test System: AMES SALMONELLA TYPHIMURIUM, Strain/Indicator: TA100, Metabolic Activation: RAT, LIVER, S-9, AROCLOR 1254 (10%), Method: PREINCUBATION) is “inactive; negative”; the mutagenic call (Test System: AMES SALMONELLA TYPHIMURIUM, Strain/Indicator: TA100, Metabolic Activation: RAT, LIVER, S-9, AROCLOR 1254 (30%), Method: PREINCUBATION) was “inactive; negative”; the mutagenic call (Test System: AMES SALMONELLA TYPHIMURIUM, Strain/Indicator: TA1535, Metabolic Activation: HAMSTER, LIVER, S-9, AROCLOR 1254 (10 OR 30%), Method: PREINCUBATION) was “inactive; negative”. Also, the mutagenic call is “inactive; negative” (Test System: AMES SALMONELLA TYPHIMURIUM, Strain/Indicator: TA1535, Metabolic Activation: NONE, Method: PREINCUBATION); “inactive; negative” (Test System: AMES SALMONELLA TYPHIMURIUM, Strain/Indicator: TA1535, Metabolic Activation: RAT, LIVER, S-9, AROCLOR 1254 (10 OR 30%), Method: PREINCUBATION); “inactive; negative” (Test System: AMES SALMONELLA TYPHIMURIUM, Strain/Indicator: TA1537, Metabolic Activation: HAMSTER, LIVER, S-9, AROCLOR 1254 (10 OR 30%), Method: PREINCUBATION); “inactive; negative” (Test System: AMES SALMONELLA TYPHIMURIUM, Strain/Indicator: TA1537, Metabolic Activation: NONE, Method: PREINCUBATION); “inactive; negative” (Test System: AMES SALMONELLA TYPHIMURIUM, Strain/Indicator: TA1537, Metabolic Activation: RAT, LIVER, S-9, AROCLOR 1254 (10 OR 30%), Method: PREINCUBATION); “inactive; negative. (cytotoxicity at doses of 1000 ug/plate and above.)” (Test System: Ames Salmonella typhimurium, Strain/Indicator: TA98, Metabolic Activation: None, Method: Plate incorporation amd preincubation (2 trials)). Further, the mutagenic call is “inactive; negative. (cytotoxicity at doses of 1000 ug/plate and above.)” (Test System: Ames Salmonella typhimurium, Strain/Indicator: TA98, Metabolic Activation: Rat, Liver, S-9, Aroclor, Method: Plate incorporation); “inactive; negative. (cytotoxicity at doses of 1000 ug/plate and above.)” (Test System: Ames Salmonella typhimurium, Strain/Indicator: TA100, Metabolic Activation: None, Method: Plate incorporation amd preincubation (2 trials)); “inactive; negative. (cytotoxicity at doses of 1000 ug/plate and above.)” (Test System: Ames Salmonella typhimurium, Strain/Indicator: TA100, Metabolic Activation: Rat, Liver, S-9, Aroclor, Method: Plate incorporation); “inactive; negative. (cytotoxicity at doses of 1000 ug/plate and above.)” (Test System: Ames Salmonella typhimurium, Strain/Indicator: TA1535, Metabolic Activation: None, Method: Plate incorporation amd preincubation (2 trials)); “inactive; negative. (cytotoxicity at doses of 1000 ug/plate and above.)” (Test System: Ames Salmonella typhimurium, Strain/Indicator: TA1535, Metabolic Activation: Rat, Liver, S-9, Aroclor, Method: Plate incorporation); “inactive; negative. (cytotoxicity at doses of 1000 ug/plate and above.)” (Test System: Ames Salmonella typhimurium, Strain/Indicator: TA1537, Metabolic Activation: None, Method: Plate incorporation amd preincubation (2 trials)). The mutagenic call was “inactive; negative. (cytotoxicity at doses of 1000 ug/plate and above.)” (Test System: Ames Salmonella typhimurium, Strain/Indicator: TA1537, Metabolic Activation: Rat, Liver, S-9, Aroclor, Method: Plate incorporation); “inactive; negative. (cytotoxicity at doses of 1000 ug/plate and above.)” (Test System: E. coli, Strain/Indicator: WP2P/WP2P uvrA, Metabolic Activation: None, Method: Plate incorporation amd preincubation (2 trials)); “inactive; negative. (cytotoxicity at doses of 1000 ug/plate and above.)” (Test System: E. coli, Strain/Indicator: WP2P/WP2P uvrA, Metabolic Activation: Rat, Liver, S-9, Aroclor, Method: Plate incorporation); “active; positive” (Test System: Mouse lymphoma cells, Strain/Indicator: L5178Y (tk+/tk-), Metabolic Activation: None, Method: Not given by California Department of Pesticides Regulation); “active; positive” (Test System: Mouse lymphoma cells, Strain/Indicator: L5178Y (tk+/tk-), Metabolic Activation: Rat, Liver, S-9, Method: Not given by California Department of Pesticides Regulation); “inactive; negative” (Test System: UDS primary rat hepatocytes, Strain/Indicator: Thymidine incorporation, Method: Liquid scintillation counting).

Turning to `O=[N+]([O-])c1ccc2ccc3cccc4c(O)cc1c2c34`, the mutagenic call runs as follows: (Test System: AMES SALMONELLA TYPHIMURIUM, Strain/Indicator: TA98, Metabolic Activation: NONE, Method: STANDARD PLATE) “active; positive”; (Test System: AMES SALMONELLA TYPHIMURIUM, Strain/Indicator: TA98, Metabolic Activation: RAT, LIVER, S-9, AROCLOR 1254, Method: STANDARD PLATE) “active; positive”.

As to `Cc1cc([N+](=O)[O-])cc2ccccc12`, the mutagenic call under setting [1] was “active; positive”.

For `O=C1NC(=O)[C@H]2[C@H]3C=C[C@@H]([C@@H]12)[C@@H]1[C@H]2C(=O)NC(=O)[C@H]2[C@H]31`, the mutagenic call reads like this: (Test System: MOUSE LYMPHOMA, Strain/Indicator: L5178Y (TK+/TK-), Metabolic Activation: NONE, Method: SUSPENSION/PLATE) “active; positive. reevaluation of results: inconclusive”; (Test System: MOUSE LYMPHOMA, Strain/Indicator: L5178Y (TK+/TK-), Metabolic Activation: RAT, LIVER, S-9, AROCLOR 1254, Method: SUSPENSION/PLATE) “active; positive. reevaluation of results: positive”.

For the origin of these results see PubChem BioAssay AID1259407 (Chemical Carcinogenesis Research Information System (CCRIS), 2018).
